{"source": "patent US12138272B2", "about": "“Methods and compositions for treating amyotrophic lateral sclerosis” (Amylyx Pharmaceuticals, Inc., priority 2022, dated 2024)", "key": {"BSEP [1]": {"target": "T1, BSEP (Homo sapiens, UniProt O95342)", "T1 sequence (O95342 whole entry)": "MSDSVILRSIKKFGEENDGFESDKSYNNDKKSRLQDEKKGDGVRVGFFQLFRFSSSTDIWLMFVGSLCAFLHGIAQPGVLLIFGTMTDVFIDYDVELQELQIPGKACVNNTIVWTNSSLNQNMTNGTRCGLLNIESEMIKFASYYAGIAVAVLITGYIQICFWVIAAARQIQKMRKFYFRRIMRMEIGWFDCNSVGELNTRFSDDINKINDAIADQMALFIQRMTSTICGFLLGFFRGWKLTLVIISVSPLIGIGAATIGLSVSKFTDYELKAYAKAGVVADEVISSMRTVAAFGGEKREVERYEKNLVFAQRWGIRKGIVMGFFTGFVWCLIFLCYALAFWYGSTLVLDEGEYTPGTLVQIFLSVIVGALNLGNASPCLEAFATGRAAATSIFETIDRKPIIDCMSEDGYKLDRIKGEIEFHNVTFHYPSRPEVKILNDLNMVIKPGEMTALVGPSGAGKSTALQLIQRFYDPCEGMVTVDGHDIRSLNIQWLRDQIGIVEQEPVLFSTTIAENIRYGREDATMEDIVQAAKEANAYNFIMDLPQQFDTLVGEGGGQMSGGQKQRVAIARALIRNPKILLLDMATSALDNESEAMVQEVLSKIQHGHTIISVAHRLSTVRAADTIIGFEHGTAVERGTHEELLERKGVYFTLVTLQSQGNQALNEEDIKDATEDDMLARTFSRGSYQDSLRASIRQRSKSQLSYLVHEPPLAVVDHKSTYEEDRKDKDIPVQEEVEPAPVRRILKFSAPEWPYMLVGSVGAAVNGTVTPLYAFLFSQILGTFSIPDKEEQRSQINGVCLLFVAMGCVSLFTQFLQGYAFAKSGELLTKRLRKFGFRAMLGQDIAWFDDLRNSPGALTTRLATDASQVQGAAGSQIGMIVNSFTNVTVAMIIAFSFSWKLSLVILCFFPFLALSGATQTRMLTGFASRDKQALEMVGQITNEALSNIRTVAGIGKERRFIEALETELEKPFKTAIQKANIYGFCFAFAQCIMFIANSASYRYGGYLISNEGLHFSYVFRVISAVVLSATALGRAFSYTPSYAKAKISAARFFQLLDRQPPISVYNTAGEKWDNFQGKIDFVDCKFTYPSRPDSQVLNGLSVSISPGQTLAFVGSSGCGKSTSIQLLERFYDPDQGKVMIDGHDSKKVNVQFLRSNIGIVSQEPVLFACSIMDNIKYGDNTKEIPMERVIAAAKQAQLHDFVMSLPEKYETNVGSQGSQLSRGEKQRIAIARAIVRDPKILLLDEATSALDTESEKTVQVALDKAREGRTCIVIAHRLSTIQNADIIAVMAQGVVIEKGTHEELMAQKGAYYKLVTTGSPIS", "assay": "in vitro"}, "Caco-2 cells": {"test_system": "Caco-2 cells", "assay": "Recovery of test article in the Caco-2 efflux assay", "assay_type": "in vitro ADME", "details": "1 and 10 μM, in the presence of cells", "method": "Non-specific binding of phenylacetic acid to the transwell assay plate in the absence of cells was not conducted. However, the recovery of the test article (1 and 10 μM) was determined in the Caco-2 efflux assay, in the presence of cells, and was acceptable."}, "[2]": {"assay": "Solubility in stock solvent and assay buffers"}, "BSEP [3]": {"target": "T1, BSEP", "assay": "ATP-dependent uptake of test article by BSEP-transfected Sf9 membrane vesicles (substrate assessment)", "details": "for substrate of BSEP (conclusion in words): criteria ≥2-fold ATP-dependent uptake and >50% inhibition by selective inhibitor"}, "BSEP [4]": {"target": "T1, BSEP", "assay": "Inhibition of 3H-taurocholic acid uptake by BSEP membrane vesicles (inhibitor assessment)", "details": "for inhibitor of BSEP (conclusion in words): criterion >25% concentration-dependent inhibition of probe substrate uptake; for ATP-Dependent Uptake Activity of 3H-taurocholic acid / Signal-to-Noise Ratio / Uptake Activity of 3H-taurocholic acid, Mg-AMP / Uptake Activity of 3H-taurocholic acid, Mg-ATP: 3H-taurocholic acid 1 μM"}, "[5]": {"details": "test article 1 μM + cyclosporine 20 μM"}, "[6]": {"details": "test article 10 μM + cyclosporine 20 μM"}}, "note": "Entries after “also recorded” stand apart in the source; their conditions may differ. Marks after values point to notes of the source that are not given here.", "data": [{"smiles": "O=C(O)Cc1ccccc1", "note": "[Phenylacetic acid]", "values": [{"measurement": "activity at 30 min, 750 μM", "setting": "BSEP [1]", "value": 99.6, "unit": "%"}, {"measurement": "activity at 30 min, 7500 μM", "setting": "BSEP [1]", "value": 0, "unit": "%"}, {"measurement": "potency estimated from few doses at 30 min", "setting": "BSEP [1]", "value": "< 7.5", "unit": "mM"}, {"measurement": "recovery of the test article in the Caco-2 efflux assay", "setting": "Caco-2 cells", "value": "acceptable"}, {"measurement": "solubility", "setting": "[2]; aqueous buffer, kinetic from dmso stock", "value": 7.5, "unit": "mM"}, {"measurement": "solubility", "setting": "[2]; methanol, organic solvent or mixture", "value": 1500, "unit": "mM"}, {"measurement": "ATP-Dependent Uptake Activity of test article", "setting": "BSEP [3]; test article 1 μM", "value": 24.2, "unit": "pmol/minute/mg protein"}, {"measurement": "Signal-to-Noise Ratio", "setting": "BSEP [3]; test article 1 μM", "value": 9.95}, {"measurement": "Uptake Activity of test article, Mg-AMP", "setting": "BSEP [3]; test article 1 μM", "value": "2.71^b pmol/minute/mg protein"}, {"measurement": "Uptake Activity of test article, Mg-ATP", "setting": "BSEP [3]; test article 1 μM", "value": 26.9, "unit": "pmol/minute/mg protein"}, {"measurement": "ATP-Dependent Uptake Activity of test article", "setting": "BSEP [3]; [5]", "value": 18.3, "unit": "pmol/minute/mg protein"}, {"measurement": "Signal-to-Noise Ratio", "setting": "BSEP [3]; [5]", "value": 3.41}, {"measurement": "Uptake Activity of test article, Mg-AMP", "setting": "BSEP [3]; [5]", "value": "7.60^c pmol/minute/mg protein"}, {"measurement": "Uptake Activity of test article, Mg-ATP", "setting": "BSEP [3]; [5]", "value": 25.9, "unit": "pmol/minute/mg protein"}, {"measurement": "ATP-Dependent Uptake Activity of test article", "setting": "BSEP [3]; test article 10 μM", "value": 814, "unit": "pmol/minute/mg protein"}, {"measurement": "Signal-to-Noise Ratio", "setting": "BSEP [3]; test article 10 μM", "value": 12.6}, {"measurement": "Uptake Activity of test article, Mg-AMP", "setting": "BSEP [3]; test article 10 μM", "value": 70.3, "unit": "pmol/minute/mg protein"}, {"measurement": "Uptake Activity of test article, Mg-ATP", "setting": "BSEP [3]; test article 10 μM", "value": 884, "unit": "pmol/minute/mg protein"}, {"measurement": "ATP-Dependent Uptake Activity of test article", "setting": "BSEP [3]; [6]", "value": 772, "unit": "pmol/minute/mg protein"}, {"measurement": "Signal-to-Noise Ratio", "setting": "BSEP [3]; [6]", "value": 10.1}, {"measurement": "Uptake Activity of test article, Mg-AMP", "setting": "BSEP [3]; [6]", "value": 84.7, "unit": "pmol/minute/mg protein"}, {"measurement": "Uptake Activity of test article, Mg-ATP", "setting": "BSEP [3]; [6]", "value": 857, "unit": "pmol/minute/mg protein"}, {"measurement": "ATP-dependent BSEP uptake activity relative to AMP uptake", "setting": "BSEP [3]; test article 1 and 10 μM", "value": "> 2", "unit": "fold"}, {"measurement": "substrate of BSEP (conclusion in words)", "setting": "BSEP [3]; test article 1 and 10 μM", "value": "not identified as a substrate"}, {"measurement": "substrate of BSEP (conclusion in words)", "setting": "BSEP [3]; test article 1 and 10 μM, listed as phenylacetic acid", "value": "not a substrate; also recorded: unlikely that phenylacetic acid is a substrate"}, {"measurement": "inhibition of test article uptake by cyclosporine A", "setting": "BSEP [3]; test article 1 and 10 μM, cyclosporine A 20 μM", "value": "not inhibited by cyclosporine A"}, {"measurement": "inhibitor of BSEP (conclusion in words)", "setting": "BSEP [4]", "value": "strongly inhibited; also recorded: identified as an inhibitor of BSEP; also recorded: inhibited BSEP"}, {"measurement": "inhibitor of BSEP (conclusion in words)", "setting": "BSEP [4]; listed as phenylacetic acid", "value": "inhibit BSEP"}, {"measurement": "ATP-Dependent Uptake Activity of 3H-taurocholic acid", "setting": "BSEP [4]; inhibitor 750 μM", "value": 4.68, "unit": "pmol/minute/mg protein"}, {"measurement": "Signal-to-Noise Ratio", "setting": "BSEP [4]; inhibitor 750 μM", "value": 17.2}, {"measurement": "Uptake Activity of 3H-taurocholic acid, Mg-AMP", "setting": "BSEP [4]; inhibitor 750 μM", "value": 0.288, "unit": "pmol/minute/mg protein"}, {"measurement": "Uptake Activity of 3H-taurocholic acid, Mg-ATP", "setting": "BSEP [4]; inhibitor 750 μM", "value": 4.96, "unit": "pmol/minute/mg protein"}, {"measurement": "ATP-Dependent Uptake Activity of 3H-taurocholic acid", "setting": "BSEP [4]; inhibitor 7500 μM", "value": "−0.136", "unit": "pmol/minute/mg protein"}, {"measurement": "Signal-to-Noise Ratio", "setting": "BSEP [4]; inhibitor 7500 μM", "value": 0.731}, {"measurement": "Uptake Activity of 3H-taurocholic acid, Mg-AMP", "setting": "BSEP [4]; inhibitor 7500 μM", "value": 0.506, "unit": "pmol/minute/mg protein"}, {"measurement": "Uptake Activity of 3H-taurocholic acid, Mg-ATP", "setting": "BSEP [4]; inhibitor 7500 μM", "value": 0.370, "unit": "pmol/minute/mg protein"}]}]}
